From patent US20080318943A1, “Compounds and Uses Thereof - 848” (ASTRAZENECA AB, priority 2007, published 2008) come the findings set out here.

One experiment concerns the target T1, GABAA receptor α1β2γ2 (Homo sapiens, UniProt P14867+P18507).
T1 construct: expressed in transfected cells; host or cells: Xenopus laevis oocytes injected with cRNA
In words: Two-electrode voltage-clamp potentiation of GABA EC10 current in Xenopus oocytes, GABAA1. The class given is cell-based. The settings on record: percentage potentiation of GABA EC10 current divided by that of diazepam. The protocol:
GABAA receptors were heterologously expressed in Xenopus oocytes by injecting cRNA corresponding to human α1, α2, α3, α5, β2, P3 and γ2 subunits of the GABAA receptor genes. The specific subunit combinations (subtypes) were as follows: α1β2γ2, α2β3γ2, α3β3γ2, and α5β3γ2. The EC10 of GABA is approximated for each cell. Stability of GABA-mediated (EC10) current is established. Modulatory effect of test compound is determined and compared across subtypes. […] Thus, the assay can characterize modulatory effects and determine subtype selectivity of test compounds on major subtypes of GABAA receptors.
Xenopus laevis frogs (Xenopus I, Kalamazoo, Mich.) were anesthetized using 0.15% tricaine. Surgically removed ovarian lobes were teased out in OR2 solution (82 NaCl, 2.5 KCl, 5 HEPES, 1.5 NaH2PO4, 1 MgCl2, 0.1 EDTA, in mM, pH 7.4). The oocytes were defolliculated by incubation in 25 mL OR2 containing 0.2% collagenase 1A (SIGMA) two times for about 60 minutes on a platform shaker and stored in Leibovitz's L-15 medium. Oocytes were injected the following day in 0.5× Leibovitz's L-15 medium containing […] gentamycin, 10 units/ml penicillin, and […] streptomycin.
Capped cRNAs from the linearized vectors containing human α1, β2 and γ2 subunits of the GABAA receptor genes were mixed in ratio of […]. Oocytes were injected with 25-50 nL of mixed RNA with an appx molar ratio for α1, β2, and γ2 as 1:1:10. Oocyte recordings were done 2-10 days after injection. The same methods apply to subtypes derived from α2β3γ2, α3β3γ2, and α5β3γ2, except for 1:1:1 ratio was used for α, β, and γ subunits.
All measurements were done in a medium containing ND-96 (96 NaCl, 2 KCl, 1.8 CaCl2.2H2O, 1 MgCl2.6H2O, 5 HEPES, in mM, pH 7.5). Two-electrode voltage-clamp recording was carried out using OpusXpress amplifier (Axon Instruments, Foster City, Calif.), which allows simultaneous recording from 8 oocytes. Oocytes were impaled with two electrodes of 1-2 MΩ tip resistance when filled with 3M KCl. Recordings were begun when membrane potential became stable at potentials negative to −50-−60 mV. Membrane potential was held at −60 mV. […] The concentration of GABA corresponded to the EC10 value calculated for each oocyte. The modulator pulses started 30 s before the GABA pulse so as to allow preincubation with the modulator. A set of 3 pulses with just GABA without modulator was given prior to the modulator-containing pulses to define the baseline GABA response. Two oocytes per each experiment were dedicated to observe the effect of diazepam on GABA response to ensure the presence of γ2 subunit in the GABAA pentameric complex, which imparts diazepam sensitivity to the complex.
Current amplitude (i) was measured from baseline to peak using Clampfit (Axon Inst., Foster City, Calif.). Potentiation was calculated as percent change from the baseline GABA current flux 100×(imod/icontrol)−1) where imod=current mediated by modulator+GABA and icontrol=current mediated by GABA alone. […] Similarly, a value of −50% potentiation means the presence of modulator caused a 50% decrease in the control current. Various other data shown here were fitted and plotted using GraphPad Prism (GraphPad Software, Inc. San Diego, Calif.). The percentage potentiation was converted to relative potentiation by dividing it with percentage potentiation value obtained from the same assay with diazepam as a control.

Experiment [1] deals with T2, GABAA2 receptors (α2, β3, γ2 receptor subunits transfected into Sf9 cells) (Homo sapiens, UniProt P18507+P47869).
T2 construct: host or cells: Sf9 cells (membranes)
In words: GABAA2 Binding Method ([3H]-Flunitrazepam displacement). The settings on record: [3H]-Flunitrazepam ~2 nM, α2β3γ2 Sf9 membranes, 1 hr at 4° C. The protocol: In some embodiments, the binding test is directed to a subtype of GABAA receptors, such as GABAA1 receptors (i.e., those containing the α1 subunit), GABAA2 receptors (i.e., those containing the α2 subunit), GABAA3 receptors (i.e., those containing the α3 subunit) and GABAA5 receptors (i.e., those containing the α5 subunit).
[^3H]-Flunitrazepam (Cat #NET567): Prepare 10× stock=20 nM, [F} in assay=˜2 nM
1. […] Add 5 ul of 30 uM flumazenil to wells 12 D-E for 50% control wells.
5. Add 25 μl [^3H]-Flunitrazepam (Automation Program 6). Incubate for 1 hr at 4° C.
6. Collect membranes on a cell harvester onto GF/B filter plates (pre-wet with dH2O and wash 5×400 μl/well, with cold assay buffer. (First 3 washes are considered hot; last two are cold.)
Data is analyzed by calculating percent of control, IC50, and Ki in an XLfit template. The following formula is used in the templates: […]

For orientation: Ki means the equilibrium dissociation constant of an inhibitor or competing ligand from its target. Read a high Ki as a looser hold on the target.

T2 sequence (P47869 29-451): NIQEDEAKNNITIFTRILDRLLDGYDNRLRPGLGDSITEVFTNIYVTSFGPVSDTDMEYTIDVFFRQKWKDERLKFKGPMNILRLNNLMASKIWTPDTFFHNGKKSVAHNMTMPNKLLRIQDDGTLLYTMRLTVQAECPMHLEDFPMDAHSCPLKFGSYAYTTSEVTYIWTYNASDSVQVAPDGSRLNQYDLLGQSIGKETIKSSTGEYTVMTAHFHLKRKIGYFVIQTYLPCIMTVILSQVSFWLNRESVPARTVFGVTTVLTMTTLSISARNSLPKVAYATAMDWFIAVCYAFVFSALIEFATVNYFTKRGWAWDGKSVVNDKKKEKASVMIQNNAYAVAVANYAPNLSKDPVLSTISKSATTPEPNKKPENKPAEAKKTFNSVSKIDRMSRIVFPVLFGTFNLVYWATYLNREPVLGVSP
T2 sequence (P28472 26-473 partner): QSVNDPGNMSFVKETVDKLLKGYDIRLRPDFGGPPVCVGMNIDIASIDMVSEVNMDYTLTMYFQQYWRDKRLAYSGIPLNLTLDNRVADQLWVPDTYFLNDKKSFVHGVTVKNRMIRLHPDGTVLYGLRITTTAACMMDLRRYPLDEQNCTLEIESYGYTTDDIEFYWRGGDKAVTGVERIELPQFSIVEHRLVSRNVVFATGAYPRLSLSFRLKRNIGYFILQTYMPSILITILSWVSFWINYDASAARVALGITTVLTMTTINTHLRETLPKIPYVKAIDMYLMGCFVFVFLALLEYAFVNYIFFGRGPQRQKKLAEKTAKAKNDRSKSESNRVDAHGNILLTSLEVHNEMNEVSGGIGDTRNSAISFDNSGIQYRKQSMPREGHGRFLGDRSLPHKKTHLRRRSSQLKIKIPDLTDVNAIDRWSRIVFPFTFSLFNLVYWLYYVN
T2 sequence (P18507 40-475): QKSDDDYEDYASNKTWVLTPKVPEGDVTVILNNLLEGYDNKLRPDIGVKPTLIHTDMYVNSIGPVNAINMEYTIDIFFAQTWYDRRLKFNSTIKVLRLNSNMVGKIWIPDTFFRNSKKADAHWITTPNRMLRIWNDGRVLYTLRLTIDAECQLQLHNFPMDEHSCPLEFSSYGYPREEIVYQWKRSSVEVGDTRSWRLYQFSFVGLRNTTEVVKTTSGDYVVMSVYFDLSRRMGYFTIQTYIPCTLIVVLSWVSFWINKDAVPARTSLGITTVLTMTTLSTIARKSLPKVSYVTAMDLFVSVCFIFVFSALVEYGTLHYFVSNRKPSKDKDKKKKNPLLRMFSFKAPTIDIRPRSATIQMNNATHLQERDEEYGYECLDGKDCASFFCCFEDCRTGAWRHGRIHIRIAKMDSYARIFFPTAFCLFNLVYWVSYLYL
T1 sequence (P14867 28-456): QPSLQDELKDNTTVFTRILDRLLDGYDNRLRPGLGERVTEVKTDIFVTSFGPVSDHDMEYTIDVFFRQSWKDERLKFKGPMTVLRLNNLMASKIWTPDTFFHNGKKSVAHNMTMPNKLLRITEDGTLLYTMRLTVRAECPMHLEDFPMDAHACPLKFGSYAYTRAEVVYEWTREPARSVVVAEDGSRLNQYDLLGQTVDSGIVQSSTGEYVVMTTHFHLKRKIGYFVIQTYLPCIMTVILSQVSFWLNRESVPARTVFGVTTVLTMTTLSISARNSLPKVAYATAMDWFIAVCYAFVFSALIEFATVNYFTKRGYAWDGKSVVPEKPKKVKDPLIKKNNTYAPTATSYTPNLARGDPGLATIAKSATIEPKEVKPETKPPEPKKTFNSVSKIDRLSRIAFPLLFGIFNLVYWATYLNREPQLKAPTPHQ
T1 sequence (P47870 25-512 partner limits assumed): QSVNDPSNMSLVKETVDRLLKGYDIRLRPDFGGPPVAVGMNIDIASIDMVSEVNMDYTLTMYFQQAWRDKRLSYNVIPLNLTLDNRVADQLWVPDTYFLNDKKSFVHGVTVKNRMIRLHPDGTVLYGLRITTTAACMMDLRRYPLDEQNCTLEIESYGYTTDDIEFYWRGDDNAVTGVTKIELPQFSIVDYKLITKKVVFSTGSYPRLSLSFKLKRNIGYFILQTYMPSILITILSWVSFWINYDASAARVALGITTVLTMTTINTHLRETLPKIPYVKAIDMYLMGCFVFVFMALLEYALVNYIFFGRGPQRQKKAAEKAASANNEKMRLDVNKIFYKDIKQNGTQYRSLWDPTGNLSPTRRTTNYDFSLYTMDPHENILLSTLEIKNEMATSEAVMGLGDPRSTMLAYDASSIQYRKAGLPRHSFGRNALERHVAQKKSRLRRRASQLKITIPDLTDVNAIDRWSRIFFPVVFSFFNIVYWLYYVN
T1 sequence (P18507 40-475): as the sequence (P18507 40-475) above

As for `CCCN1Cc2nc3c(-c4cc(OC)cnc4Cl)cccc3c(N)c2C1=O` [9-amino-5-(2-chloro-5-methoxypyridin-3-yl)-2-propyl-2,3-dihydro-1H-pyrrolo[3,4-b]quinolin-1-one], the “Relative Potentiation for GABAA1” value at GABAA receptor α1β2γ2 worked out at 0.45. Further, the Ki in experiment [1] was determined as 9.72 nM.

Regarding `CCCN1Cc2nc3c(-c4cc(Br)cnc4OC)cccc3c(N)c2C1=O` [9-amino-5-(5-bromo-2-methoxypyridin-3-yl)-2-propyl-2,3-dihydro-1H-pyrrolo[3,4-b]quinolin-1-one], the “Relative Potentiation for GABAA1” value at GABAA receptor α1β2γ2 stood at 0.53. Moreover, the Ki in experiment [1] was determined as 10.6 nM.

As to `COc1ccncc1-c1cccc2c(N)c3c(nc12)CN(Cc1ccc2c(c1)OCO2)C3=O` [9-amino-2-(benzo[d][1,3]dioxol-5-ylmethyl)-5-(4-methoxypyridin-3-yl)-2,3-dihydro-1H-pyrrolo[3,4-b]quinolin-1-one], the “Relative Potentiation for GABAA1” value on GABAA receptor α1β2γ2 was 0.28. In experiment [1], the inhibition constant Ki is 2.19 nM.

`COc1ccc(OC)c(-c2cccc3c(N)c4c(nc23)CN(Cc2ccc3c(c2)OCO3)C4=O)c1` [9-amino-2-(benzo[d][1,3]dioxol-5-ylmethyl)-5-(2,5-dimethoxyphenyl)-2,3-dihydro-1H-pyrrolo[3,4-b]quinolin-1-one]: the “Relative Potentiation for GABAA1” value on GABAA receptor α1β2γ2 is 0.33. The Ki in experiment [1] was found to be 60.6 nM.

With `COc1ccc([C@@H](C)N2Cc3nc4c(-c5c(F)cccc5OC)cccc4c(N)c3C2=O)cc1` [9-amino-5-(2-fluoro-6-methoxyphenyl)-2-((R)-1-(4-methoxyphenyl)ethyl)-2,3-dihydro-1H-pyrrolo[3,4-b]quinolin-1-one], the “Relative Potentiation for GABAA1” value at GABAA receptor α1β2γ2 is −0.008. Besides, in experiment [1], the affinity, expressed as Ki, was 20.9 nM.

For the compound `CCCN1Cc2nc3c(-c4cccnc4OCC)cccc3c(N)c2C1=O` [9-amino-5-(2-ethoxypyridin-3-yl)-2-propyl-2,3-dihydro-1H-pyrrolo[3,4-b]quinolin-1-one], at GABAA receptor α1β2γ2, the “Relative Potentiation for GABAA1” value is listed as 0.56. In experiment [1], the affinity, expressed as Ki, was 15 nM.

As for `CCCN1Cc2nc3c(-c4ccc(C)nc4OC)cccc3c(N)c2C1=O` [9-amino-5-(2-methoxy-6-methylpyridin-3-yl)-2-propyl-2,3-dihydro-1H-pyrrolo[3,4-b]quinolin-1-one], at GABAA receptor α1β2γ2, the “Relative Potentiation for GABAA1” value came to 1.1. Also, in experiment [1], affinity was put at a Ki of 24 nM.

As to `CCCN1Cc2nc3c(-c4cccc(OC)c4F)cccc3c(N)c2C1=O` [9-amino-5-(2-fluoro-3-methoxyphenyl)-2-propyl-2,3-dihydro-1H-pyrrolo[3,4-b]quinolin-1-one], the “Relative Potentiation for GABAA1” value on GABAA receptor α1β2γ2 turned out to be 0.2. The Ki in experiment [1] amounted to 11.5 nM.

For the compound `CCCN1Cc2nc3c(-c4ccc(F)nc4F)cccc3c(N)c2C1=O` [9-amino-5-(2,6-difluoropyridin-3-yl)-2-propyl-2,3-dihydro-1H-pyrrolo[3,4-b]quinolin-1-one], the “Relative Potentiation for GABAA1” value at GABAA receptor α1β2γ2 worked out at 0.21. Also, in experiment [1], the Ki is 75.3 nM.

As for `COc1ccc(Cl)cc1-c1cccc2c(N)c3c(nc12)CN(C1CC1)C3=O` [9-amino-5-(5-chloro-2-methoxyphenyl)-2-cyclopropyl-2,3-dihydro-1H-pyrrolo[3,4-b]quinolin-1-one], the “Relative Potentiation for GABAA1” value on GABAA receptor α1β2γ2 is 0.19. In addition, affinity in experiment [1] was put at a Ki of 8.95 nM.

`Cc1ccc(-c2cccc3c(N)c4c(nc23)CN(C2CC2)C4=O)c(Cl)n1` [9-amino-5-(2-chloro-6-methylpyridin-3-yl)-2-cyclopropyl-2,3-dihydro-1H-pyrrolo[3,4-b]quinolin-1-one]: the “Relative Potentiation for GABAA1” value on GABAA receptor α1β2γ2 came out at 0.4. This compound yielded an inhibition constant (Ki) in experiment [1] of 7.87 nM.

`COc1ccc(CN2Cc3nc4c(-c5ccc(C)nc5C)cccc4c(N)c3C2=O)cc1OC` [9-amino-2-(3,4-dimethoxybenzyl)-5-(2,6-dimethylpyridin-3-yl)-2,3-dihydro-1H-pyrrolo[3,4-b]quinolin-1-one]: the “Relative Potentiation for GABAA1” value at GABAA receptor α1β2γ2 was found to be 0.21. This compound also gave a Ki in experiment [1] of 2.7 nM.

For the compound `CCCN1Cc2nc3c(-c4cc(OC)cc(OC)c4)cccc3c(N)c2C1=O` [9-amino-5-(3,5-dimethoxyphenyl)-2-propyl-2,3-dihydro-1H-pyrrolo[3,4-b]quinolin-1-one], the “Relative Potentiation for GABAA1” value at GABAA receptor α1β2γ2 is 0.6. Moreover, the affinity in experiment [1], expressed as Ki, was 46.7 nM.
